Experimental data from ChEMBL document CHEMBL1140668, “Antifungal activity in triterpene glycosides from the sea cucumber Actinopyga lecanora” (2007).
≈ marks a conversion by molar mass, not a printed value.

How the values were obtained:
Talaromyces funiculosus = experiment: Antifungal activity against Penicillium funiculosum MTCC 287; format: functional
Penicillium ochrochloron = experiment: Antifungal activity against Penicillium ochrochloron MTCC 517; format: functional
Candida albicans [1] = experiment: Antifungal activity against Candida albicans; format: functional
Trichophyton benhamiae = experiment: Antifungal activity against Trichophyton mentagrophytes; format: functional, Arthroderma benhamiae
Candida albicans [2] = experiment: Antifungal activity against Candida albicans ATCC 10231; format: functional
Candida albicans [3] = experiment: Antifungal activity against Candida albicans ATCC 60193; format: functional
Aspergillus flavus = experiment: Antifungal activity against Aspergillus flavus; format: functional
Aspergillus terreus = experiment: Antifungal activity against Aspergillus terreus IMI 235704; format: functional
Candida albicans [4] = experiment: Antifungal activity against Candida albicans ATCC 14053; format: functional
Cryptococcus neoformans [5] = experiment: Antifungal activity against Cryptococcus neoformans ATCC 6603; format: functional
Candida albicans [6] = experiment: Antifungal activity against Candida albicans MTCC 227; format: functional
Candida parapsilosis = experiment: Antifungal activity against Candida parapsilosis ATCC 22019; format: functional; conditions: Lodderomyces parapsilosis
Candida albicans [7] = experiment: Antifungal activity against Candida albicans ATCC 66027; format: functional
Candida albicans [8] = experiment: Antifungal activity against Candida albicans MTCC 183; format: functional
Aspergillus fumigatus = experiment: Antifungal activity against Aspergillus fumigatus; format: functional
Trichophyton rubrum = experiment: Antifungal activity against Trichophyton rubrum MTCC 296; format: functional
Pichia kudriavzevii = experiment: Antifungal activity against Candida krusei ATCC 6258; format: functional
Cryptococcus neoformans [9] = experiment: Antifungal activity against Filobasidiella neoformans MTCC 1346; format: functional
Cryptococcus neoformans [10] = experiment: Antifungal activity against Cryptococcus neoformans; format: functional
Sporothrix schenckii = experiment: Antifungal activity against Sporothrix schenckii; format: functional

SMILES | MIC (Talaromyces funiculosus) [µg/mL] | MIC (Penicillium ochrochloron) [µg/mL] | MIC (Candida albicans [1]) [µg/mL] | MIC (Trichophyton benhamiae) [µg/mL] | MIC (Candida albicans [2]) [µg/mL] | MIC (Candida albicans [3]) [µg/mL] | MIC (Aspergillus flavus) [µg/mL] | MIC (Aspergillus terreus) [µg/mL] | MIC (Candida albicans [4]) [µg/mL] | MIC (Cryptococcus neoformans [5]) [µg/mL] | MIC (Candida albicans [6]) [µg/mL] | MIC (Candida parapsilosis) [µg/mL] | MIC (Candida albicans [7]) [µg/mL] | MIC (Candida albicans [8]) [µg/mL] | MIC (Aspergillus fumigatus) [µg/mL] | MIC (Trichophyton rubrum) [µg/mL] | MIC (Pichia kudriavzevii) [µg/mL] | MIC (Cryptococcus neoformans [9]) [µg/mL] | MIC (Cryptococcus neoformans [10]) [µg/mL] | MIC (Sporothrix schenckii) [µg/mL]
C[C@H]1O[C@@H](O[C@H]2[C@H](O[C@H]3CC[C@]4(C)C5=C[C@H](O)C67C(=O)O[C@@](C)(C8CCC(C)(C)O8)[C@@]6(O)CC[C@@]7(C)[C@@H]5CCC4C3(C)C)OC[C@@H](OS(=O)(=O)[O-])[C@@H]2O)[C@H](O)[C@@H](O)[C@@H]1O.[Na+] (some centres not stated) [HOLOTHURIN B] | 12.5 | 12.5 | 3.12 | 1.56 | 25 | 12.5 | 12.5 | 25 | 12.5 | 3.12 | 12.5 | 6.25 | 25 | 25 | 3.12 | 3.12 | 12.5 | 6.25 | 3.12 | 1.56
CO[C@@H]1[C@@H](O)[C@H](O[C@@H]2[C@@H](O)[C@H](O[C@H]3[C@H](O)[C@@H](O)[C@H](O[C@H]4[C@H](O[C@H]5CC[C@]6(C)C7=C[C@H](O)[C@@]89C(=O)O[C@@](C)(C%10CCC(C)(C)O%10)[C@@]8(O)CC[C@@]9(C)[C@@H]7CC[C@H]6C5(C)C)OC[C@@H](OS(=O)(=O)[O-])[C@@H]4O)O[C@@H]3C)O[C@H](CO)[C@H]2O)O[C@H](CO)[C@H]1O.[Na+] (some centres not stated) [HOLOTHURIN A] | – | – | 50 | 25 | – | – | – | – | – | – | – | – | – | – | 50 | – | – | – | 25 | 25
CC(=O)O[C@H]1C[C@@]2(C)C3=CCC4C(C)(C)[C@@H](O[C@@H]5OC[C@@H](O)[C@H](O)[C@H]5O)CC[C@]4(C)C3CCC23C(=O)O[C@@](C)(CCCC(C)C)[C@@H]13 (some centres not stated) | – | – | 50 (≈ 77.3 µM) | 25 (≈ 38.6 µM) | – | – | – | – | – | – | – | 50 (≈ 77.3 µM) | – | – | 50 (≈ 77.3 µM) | – | – | – | 25 (≈ 38.6 µM) | 25 (≈ 38.6 µM)
OC(Cn1cncn1)(Cn1cncn1)c1ccc(F)cc1F [FLUCONAZOLE] | – | – | 0.5 (≈ 1.63 µM) | 2 (≈ 6.53 µM) | – | – | – | – | – | – | – | 1 (≈ 3.27 µM) | – | – | 2 (≈ 6.53 µM) | – | – | – | 1 (≈ 3.27 µM) | 1 (≈ 3.27 µM)
